The values that follow come from patent US5250679A, “Nonpeptidyl platelet aggregation inhibitors having specificity for the GPIIb III receptor” (Genentech, Inc., priority 1992, dated 1993).

pIC50: −log10 of the molar value. Structures can show the parent of a compound that is named as a salt. Where two headings read alike, the source gives them in different places. Bounds are passed on as bounds.

The target in assay [1] is T1, Human Vitronectin receptor (av b3) (Homo sapiens, UniProt P05106+P06756).
T1 construct: is purified from human placenta; from tissue; host or cells: human placenta
T1 sequence (P06756 31-889 limits assumed): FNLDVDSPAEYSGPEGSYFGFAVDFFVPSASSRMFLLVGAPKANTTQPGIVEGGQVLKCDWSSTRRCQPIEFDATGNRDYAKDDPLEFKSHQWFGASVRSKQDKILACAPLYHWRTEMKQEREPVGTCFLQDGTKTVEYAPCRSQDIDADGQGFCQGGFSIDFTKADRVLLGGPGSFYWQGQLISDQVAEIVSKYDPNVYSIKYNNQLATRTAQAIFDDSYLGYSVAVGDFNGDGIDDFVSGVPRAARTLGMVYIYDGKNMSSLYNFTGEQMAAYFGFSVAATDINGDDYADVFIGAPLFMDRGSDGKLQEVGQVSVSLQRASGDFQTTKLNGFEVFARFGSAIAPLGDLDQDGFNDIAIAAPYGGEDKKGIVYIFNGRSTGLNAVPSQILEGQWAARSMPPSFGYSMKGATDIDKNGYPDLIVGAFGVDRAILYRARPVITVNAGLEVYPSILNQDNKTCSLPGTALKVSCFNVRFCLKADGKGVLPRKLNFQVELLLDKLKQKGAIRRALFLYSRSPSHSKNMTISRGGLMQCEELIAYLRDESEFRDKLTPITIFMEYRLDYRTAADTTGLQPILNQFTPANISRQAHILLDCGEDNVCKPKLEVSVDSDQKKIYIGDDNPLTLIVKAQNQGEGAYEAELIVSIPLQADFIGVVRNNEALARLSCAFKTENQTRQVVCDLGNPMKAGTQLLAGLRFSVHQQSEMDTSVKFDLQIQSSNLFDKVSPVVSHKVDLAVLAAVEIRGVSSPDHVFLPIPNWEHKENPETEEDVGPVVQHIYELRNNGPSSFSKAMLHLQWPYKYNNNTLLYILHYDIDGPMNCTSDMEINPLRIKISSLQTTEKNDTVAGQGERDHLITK
T1 sequence (P06756 891-1048 partner limits assumed): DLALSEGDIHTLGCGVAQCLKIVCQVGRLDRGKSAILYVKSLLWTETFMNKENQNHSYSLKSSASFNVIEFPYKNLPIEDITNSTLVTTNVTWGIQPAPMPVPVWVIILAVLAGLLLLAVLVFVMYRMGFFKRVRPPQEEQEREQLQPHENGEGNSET
T1 sequence (P05106 27-788): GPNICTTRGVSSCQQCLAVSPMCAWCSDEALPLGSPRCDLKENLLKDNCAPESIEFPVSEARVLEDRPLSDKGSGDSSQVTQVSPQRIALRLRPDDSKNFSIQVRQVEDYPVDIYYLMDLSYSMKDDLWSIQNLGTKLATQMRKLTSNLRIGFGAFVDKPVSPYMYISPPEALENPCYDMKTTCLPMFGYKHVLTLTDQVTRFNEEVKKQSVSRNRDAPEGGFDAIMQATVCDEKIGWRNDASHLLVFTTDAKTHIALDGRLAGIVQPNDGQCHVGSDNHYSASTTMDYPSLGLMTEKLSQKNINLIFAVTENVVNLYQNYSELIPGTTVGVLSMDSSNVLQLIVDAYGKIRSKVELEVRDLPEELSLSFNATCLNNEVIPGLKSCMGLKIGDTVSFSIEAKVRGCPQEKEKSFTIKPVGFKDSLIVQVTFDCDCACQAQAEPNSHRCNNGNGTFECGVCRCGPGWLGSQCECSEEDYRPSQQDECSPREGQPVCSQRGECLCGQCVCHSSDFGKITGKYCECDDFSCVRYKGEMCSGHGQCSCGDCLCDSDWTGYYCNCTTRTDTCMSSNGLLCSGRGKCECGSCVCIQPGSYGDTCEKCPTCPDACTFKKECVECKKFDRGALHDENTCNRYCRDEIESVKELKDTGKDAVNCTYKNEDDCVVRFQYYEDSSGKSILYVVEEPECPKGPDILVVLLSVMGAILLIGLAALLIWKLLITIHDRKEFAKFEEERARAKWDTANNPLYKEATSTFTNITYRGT
The assay can be described thus: Human Vitronectin-Vitronectin Receptor (av b3) ELISA Assay (Vn/VnR). The format is binding. The settings on record: Example 30, G # table. On the technique in general: In an ELISA, binding on a coated surface is turned into a signal by an enzyme label.
Text: Human vitronectin (Vn) is isolated from human plasma and purified by affinity chromatography by the method of Yatohgo et. al., (Cell Structure and Function 13: 281-292 [1988]).
Human vitronection receptor (VnR) is purified from human placenta by the method of Pytela et al., (Methods Enzymol., 144: 475 [1987]). Alternatively the av b3 receptor can be purified from some cell lines (e.g., human embryonic kidney 293 cells) transfected with DNA sequences for both the av and b3 subunits. The subunits are purified by employing octylglucoside extraction followed by Con-A, Heparin-Sepharose, and S-300 Chromatography.
This mouse Mab is specific for the b3 subunit of the vitronectin receptor.
Rabbit Fab 2 anti-mouse Fc fragment horse radish peroxidase conjugate (anti-MuFc HRP) is obtained from PelFreeze (cat. no. 715305-1).
Maxisorp microtiter plates are coated with 2 mg/ml human vitronectin dissolved in PBS (50 ml/well) and stored overnight at 4° C. The plates are washed two times with PBS-0.05% Tween-20 (wash buffer) and blocked by incubating with about 150 ml/well of assay buffer (1%, BSA [RIA grade or better] in 50 mM Tris-HCl, 100 mM NaCl, 1 mM MgCl2, CaCl2, MnCl2 pH 7.4) for 60 minutes. […] The blocked plates are emptied and 25 ml/well of inhibitor or standard solution is added to each well. Twenty-five ml of a 30 mg/ml solution of purified av b3 in assay buffer is pipetted into the coated plate. The final concentration of receptor in the assay well is about 15 mg/ml. The plate is incubated on a shaker for 60 minutes. Meanwhile, for each microtite plate, 6 ml buffer solution containing 1.5 mg/ml of mouse monoclonal antibody specific for b3 is prepared. To this solution is added ml of the secondary antibody, which is anti-mouse-Fc-HRP antibody conjugate. For example, for one plate, prepare 6 ml of a 1.5 mg/ml mouse Mab solution to which is added 1 ml of anti-mouse-Fc-HRP antibody stock, (this represents a 1:6000 dilution of the antibody-HRP conjugate). This mixture is allowed to incubate during the receptor-inhibitor incubation. The assay plates are washed 4 times with PBS-Tween and 50 ml/well of the antibody mixture is then pipetted into the plate for a 60 minute incubation. The plate is washed 4 times and the color reaction is developed with 50 ml/well of 0.67 mg/ml o-phenyldiamine in PBS containing 0.012% H2 O2. Alternatively, 16 mM citric acid, 50 mM Na2 PO4 at pH 5.0 can be used as a substrate buffer. The reaction is stopped with 50 ml/well 1 M H2 SO4. The plates are read at 492-405 nm and the data analyzed by four-parameter fit.

Assay [2] has as its target T2, GP IIb IIIa (Homo sapiens, UniProt P05106+P08514).
T2 construct: from tissue; host or cells: outdated human platelets
The assay can be described thus: GP IIb IIIa -von Willebrand factor (vWF) ELISA Assay (vWF/IIbIIIa). In kind it is binding. Conditions: Example 30, G # table. The procedure: Microtiter plates are coated with 1.0 mg/ml GP IIb IIIa, prepared by the method of Fitzgerald et al., (Anal. Biochem. 151: 169-177 [1985]) and allowed to incubate overnight in coat buffer. The plates are then washed three times in wash buffer (0.05% Tween 20 in PBS) and 150 ml of assay buffer is added and allowed to incubate for 1-2 hours at room temperature on plate shaker. […] Fifty ml of 4.0 mg/ml vWF (prepared as described by Ledford et al., Thrombosis and Haemostasis, 64(4): 569-575 ]1990]) in assay buffer is then added and allowed to incubate for one hour at room temperature on plate-shaker. The plates are washed three times and the antibody mixture is added (1:5000 of mouse anti-vWF and 1:5000 of rabbit-anti-mouse-Fc-HRP, both commercially available) in assay buffer and incubated for 1 hour at room temperature on plate-shaker. […] The color change of OPD/H2 O2 reagent is read at 492 nm with a 405 nm reference wavelength on the filter photometer.

In assay [3] the target is T2, GP IIb IIIa. The assay can be described thus: Fibrinogen-GP IIb IIIa Receptor ELISA Binding Assay (Fg/IIbIIIa). The settings on record: for pIC50: Example 29, Cmpd # 1-105, read-out: IC50 Fg/IIbI; for IC50: read-out: IC50 (μM) Fg/IIbIIIa. The gist of the method: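 Purified human platelet GP IIb IIIa binding to immobilised purified fibrinogen was run with compound at room temperature for 1 h. IC50 values were determined.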

Assay [4] concerns human platelet rich plasma (PRP). The assay can be described thus: In Vitro Human Platelet Aggregation Assay (PA). In kind it is cell-based. Conditions: Homo sapiens, Platelet. The procedure: In addition to the GPIIb IIIa ELISA assay, platelet aggregation assays may be performed in human platelet rich plasma (PRP). […] The blood is centrifuged at 160×g for 10 min at 22° C. and then allowed to stand for 5 min after which the PRP is decanted. Platelet poor plasma (PPP) is isolated from the remaining blood after centrifugation at 2000×g for 25 min. The platelet count of the PRP is adjusted to ca. 300,000 per microliter with PPP.
A 225 mL aliquot of PRP plus 25 mL of either a dilution of the test sample or a control (PBS) is incubated for 5 min in a Chrono-log Whole Blood Aggregometer at 25° C. An aggregating agent (collagen, 1 mg/ml; U46619, 100 ng/ml; or ADP, 8 mM) is added and the platelet aggregation recorded.
Platelet aggregation assays are performed in human platelet rich plasma (PRP). […] The blood is centrifuged at 160×g for 10 minutes at 22° C. and allowed to stand for 5 minutes after which the PRP is decanted. Platelet poor plasma (PPP) is isolated from the remaining blood after centrifugation at 2000×g for 25 minutes. The platelet count of the PRP is diluted to about 300,000 platelets per microliter with PPP.
A 225 ml aliquot of PRP plus 25 ml of either a dilution of the test inhibitor sample or a control (PBS) is incubated for 5 minutes in a Chrono-log Whole Blood Aggregometer at 25° C. An aggregating agent (collagen, 1 mg/ml; U46619, 100 ng/ml; or ADP, 17 mM) is added and the transmission is recorded.

[5] abbreviates: citrate, read-out: PA IC50 (μM) (citrate).
Where [6] appears, read: heparin, read-out: PA IC50 (μM) (heparin).
Setting [7] is: Examples 29 and 30, Cmpd # tables.

T2 sequence (P08514 32-887 limits assumed): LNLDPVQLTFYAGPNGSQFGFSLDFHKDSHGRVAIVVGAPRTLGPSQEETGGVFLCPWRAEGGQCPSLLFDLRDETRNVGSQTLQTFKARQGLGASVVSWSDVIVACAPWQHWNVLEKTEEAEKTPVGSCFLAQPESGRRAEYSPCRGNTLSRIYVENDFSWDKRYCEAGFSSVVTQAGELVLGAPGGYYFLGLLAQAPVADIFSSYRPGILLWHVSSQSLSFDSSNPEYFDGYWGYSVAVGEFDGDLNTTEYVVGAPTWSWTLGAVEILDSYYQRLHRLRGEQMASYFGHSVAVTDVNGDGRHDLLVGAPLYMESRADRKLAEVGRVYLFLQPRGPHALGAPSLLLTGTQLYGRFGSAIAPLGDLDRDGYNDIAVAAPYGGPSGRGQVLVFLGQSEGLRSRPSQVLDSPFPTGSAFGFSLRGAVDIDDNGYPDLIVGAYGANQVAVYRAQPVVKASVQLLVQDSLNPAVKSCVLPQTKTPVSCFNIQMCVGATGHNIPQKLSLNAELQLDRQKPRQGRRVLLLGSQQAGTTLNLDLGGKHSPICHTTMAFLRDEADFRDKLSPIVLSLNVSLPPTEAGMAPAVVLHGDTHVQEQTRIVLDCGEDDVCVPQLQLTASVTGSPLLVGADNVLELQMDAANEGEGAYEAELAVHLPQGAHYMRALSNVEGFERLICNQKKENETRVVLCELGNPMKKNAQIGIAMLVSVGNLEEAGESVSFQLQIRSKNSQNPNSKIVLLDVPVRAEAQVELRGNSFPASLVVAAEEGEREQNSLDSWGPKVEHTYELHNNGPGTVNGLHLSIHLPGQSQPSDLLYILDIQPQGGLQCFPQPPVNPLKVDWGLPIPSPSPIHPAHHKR
T2 sequence (P08514 891-1039 partner limits assumed): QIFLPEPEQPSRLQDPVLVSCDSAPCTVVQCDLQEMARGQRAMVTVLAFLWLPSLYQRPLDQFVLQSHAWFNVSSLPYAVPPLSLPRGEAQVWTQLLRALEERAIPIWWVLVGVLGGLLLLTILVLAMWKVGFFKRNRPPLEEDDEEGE
T2 sequence (P05106 27-788): as the sequence (P05106 27-788) above

Regarding `CN1C(=O)CN(CCC(=O)O)C(=O)c2cc(CCCCNC(=N)N)ccc21` [Cmpd 20], the IC50 in assay [1] is greater than 10 µM; at GP IIb IIIa [2], 0.096 µM; on GP IIb IIIa [3] (Example 30, G # table) it was 0.245 µM. The pIC50 at GP IIb IIIa [3] is 6.60.

For the compound `CN1C(=O)CN(CCC(=O)O)C(=O)c2cc(CCCCCN)ccc21` [Cmpd 27, 1-methyl-4-(2-carboxyethyl)-7-(5-amino-1-pentyl)-3,4-dihydro-1H-1,4-benzodiazepine-2,5-dione trifluroacetate], the IC50 in assay [1] is greater than 10 µM; on GP IIb IIIa [2], 0.78 µM; at GP IIb IIIa [3] (Example 30, G # table), 1.9 µM. The pIC50 on GP IIb IIIa [3] was 5.72.

In the case of `CN1C(=O)CN(CCC(=O)O)C(=O)c2cc(CCCCCNC(=N)N)ccc21` [Cmpd 28, 1-methyl-4-(2-carboxyethyl)-7-(5-guanidino-1-pentyl)-3,4-dihydro-1H-1,4-benzodiazepine-2,5-dione trifluroacetate], the IC50 in assay [1] was greater than 10 µM; at GP IIb IIIa [2] it was 0.024 µM; at GP IIb IIIa [3] (Example 30, G # table) it was 0.055 µM. Moreover, the pIC50 at GP IIb IIIa [3] is 7.26.

With `CN1C(=O)CN(CCC(=O)O)C(=O)c2cc(C#CCCCN)ccc21` [Cmpd 33, 1-methyl-4-(2-carboxyethyl)-7-(5-amino-1-pentynyl)-3,4-dihydro-1H-1,4-benzodiazepine-2,5-dione trifluroacetate], the IC50 was greater than 10 µM in assay [1]; 0.39 µM against GP IIb IIIa [2]; 85.5 µM in assay [4] (setting [5]); 0.096 µM on GP IIb IIIa [3] (Example 30, G # table). Also, the pIC50 at GP IIb IIIa [3] was 7.02.

`N=C(N)NCCCC#Cc1ccc2c(c1)C(=O)N(CCC(=O)O)CC(=O)N2Cc1cccc([N+](=O)[O-])c1` [Cmpd 36, 1-(3-nitrobenzyl)-4-(2-carboxyethyl)-7-(5-guanidino-1-pentynyl)-3,4-dihydro-1H-1,4-benzodiazepine-2,5-dione trifluroacetate]: the IC50 in assay [1] was 3 µM; against GP IIb IIIa [2], 0.0004 µM; in assay [4] (setting [5]) it was 0.94 µM; on GP IIb IIIa [3] (Example 30, G # table), 0.0032 µM. Besides, the pIC50 on GP IIb IIIa [3] is 8.49.

Consider `NCCCCCCc1ccc2c(c1)C(=O)N(CCC(=O)O)CC(=O)N2C(c1ccccc1)c1ccccc1` [Cmpd 72, 1-(diphenylmethyl)-4-(2-carboxyethyl)-7-(6-aminohexyl)-3,4-dihydro-1H-1,4-benzodiazepine-2,5-dione trifluoroacetate], for which the IC50 in assay [1] was greater than 10 µM; in assay [4] (setting [5]), 0.46 µM; in assay [4] (setting [6]), 1.1 µM; at GP IIb IIIa [3] (Example 30, G # table) it was 0.022 µM. Moreover, the pIC50 at GP IIb IIIa [3] was 7.66.

Turning to `N=C(N)NCCCC#Cc1ccc2c(c1)C(=O)N(CCC(=O)O)CC(=O)N2Cc1cccc(NC(=O)CNC(=N)N)c1` [Cmpd 107], the IC50 in assay [1] is greater than 10 µM; in assay [4] (setting [5]) it was 0.61 µM; in assay [4] (setting [6]), 0.89 µM; on GP IIb IIIa [3] (Example 30, G # table), 0.018 µM; on GP IIb IIIa [3] (setting [7]), 0.018 µM.

Take `NCCCCCCc1ccc2c(c1)C(=O)N(CCC(=O)O)CC(=O)N2Cc1cccc(NC(=O)CN)c1` [Cmpd 108]: the IC50 was greater than 10 µM in assay [1]; 0.55 µM in assay [4] (setting [5]); 1.09 µM in assay [4] (setting [6]); 0.012 µM at GP IIb IIIa [3] (Example 30, G # table); 0.012 µM at GP IIb IIIa [3] (setting [7]).

In the case of `N=C(N)NCCCCCCc1ccc2c(c1)C(=O)N(CCC(=O)O)CC(=O)N2Cc1cccc(NC(=O)CNC(=N)N)c1` [Cmpd 109], the IC50 is greater than 10 µM in assay [1]; 1.19 µM in assay [4] (setting [5]); 0.017 µM on GP IIb IIIa [3] (Example 30, G # table); 0.017 µM on GP IIb IIIa [3] (setting [7]).

Take `NCCCCCCc1ccc2c(c1)C(=O)N(CCC(=O)O)CC(=O)N2Cc1cccc(NC(=O)CCN)c1` [Cmpd 110, 1-[3-(3-aminopropionyl)aminophenyl]methyl-4-(2-carboxyethyl)-7-(6-aminohexyl)-3,4-dihydro-1H-1,4-benzodiazapine-2,5-dione bistrifluoroacetate]: the IC50 in assay [1] is greater than 10 µM; in assay [4] (setting [5]), 0.28 µM; in assay [4] (setting [6]), 0.83 µM; at GP IIb IIIa [3] (Example 30, G # table), 0.008 µM; at GP IIb IIIa [3] (setting [7]) it was 0.008 µM.

Consider `N=C(N)NCCCCCCc1ccc2c(c1)C(=O)N(CCC(=O)O)CC(=O)N2Cc1cccc(NC(=O)CCNC(=N)N)c1` [Cmpd 111], for which the IC50 in assay [1] is greater than 10 µM; in assay [4] (setting [5]), 1.14 µM; in assay [4] (setting [6]) it was 1.49 µM; at GP IIb IIIa [3] (Example 30, G # table), 0.01 µM; on GP IIb IIIa [3] (setting [7]), 0.01 µM.
